Experimental data as given in US20240216412A1, “OXIDIZED NICOTINAMIDE ADENINE DINUCLEOTIDE (NAD+) PRECURSOR TREATMENT FOR HEART FAILURE ALLEVIATION INDEPENDENT OF MITOCHONDRIAL PROTEIN DEACETYLATION” (University of Washington, priority 2022, published 2024).

Legend:
RXRα = assay: Chromatin immunoprecipitation (ChIP) of RXRα at the Acadm promoter PPRE; format: in vivo; conditions: ISO mouse hearts, NR plus GW6471
Experimental: Chromatin immunoprecipitation (ChIP). The EZ ChIP kit (EMD Millipore catalog #17-371) was used according to the manufacturer's protocol. Briefly, heart tissue was cut into small pieces using a razor blade in a petri dish on ice. The cubed tissue was incubated in fixation solution (1% formaldehye) in a conical tube and rotated at room temperature for 15 minutes to crosslink proteins and chromatin. The reaction was stopped by adding 0.125M Glycine for 5 min at room temperature. The contents were homogenized with a hand-held tissue homogenizer for 45 seconds then pelleted by centrifugation for 3 minutes at 1,250×g at 4C. The supernatant was discarded and the pellet was resuspended in 10 ml ice-cold PBS wash buffer followed by centrifugation at 1,250×g for 3 minutes. This was wash step was repeated on ice. The supernatant was discarded and the pellet resuspended in 5 ml chromatin prep buffer and incubated on ice for 10 minutes. The resuspended pellet was homogenized on ice with a dounce homogenizer for 30 strokes and then contents transferred to new conical tube on ice. The suspension was centrifuged 3 minutes at 1,250×g at 4C then supernatant discarded. The pellet was resuspended in 1 ml Chip buffer and transferred to new centrifuge tube then incubated on ice for 10 minutes. […] Purified chromatin was analyzed on a 1% agarose gel to determine the shearing efficiency. […]

[1] = tested on: isoproterenol (ISO) induced heart failure in WT and Sirt3Ko mice; assay: Isoproterenol (ISO) minipump induced heart failure, echocardiography and HW/TL; format: in vivo, mouse; conditions: 14 days of ISO, NR plus GW6471 4.5 mg/kg/day
Experimental: Minipump implantation. Pathologic hypertrophy was induced by treating male (3-4 months old) Sirt3ko and WT mice with isoproterenol (ISO) or vehicle for 14 days. Mice with and without GW6471(4.5 mg/kg/day) were treated with NR (500 mg/kg body weight IP daily) or vehicle starting at day one after mini-pump insertion. Briefly, an incision was made in the skin between the shoulder blades. A deep subcutaneous pocket was made caudal to the incision using blunt dissection. The sterile minipump (Alzet #2002) was inserted into the pocket, and the incision was closed with wound clips. Isoproterenol (30 mg/kg/day) was delivered by osmotic minipump for 14 days. Minipumps carrying saline were used as a control.
Transthoracic Echocardiography. Echocardiography of hearts was performed at indicated time after surgery using the VEVO 2100 high-frequency, high-resolution digital imaging system (VisualSonics) equipped with a MS400 Microscan Transducer on anesthetized mice (0.5%-2% isoflurane in 95% oxygen). Measurements were made when heart rate was >450 bpm. Cardiac function and geometry measurements were measured in parasternal short axis view. M-mode images were used for analysis and calculated by the average of at least three cardiac cycles and carried out in a blind fashion. Hearts were harvested at 12-week post-surgery for subsequent experiments and biochemical assays.
Organ weight and histological assessment. Hearts from mice were harvested, rinsed briefly in 1×PBS, blotted dry, and weighed. Lungs from the same mice were harvested, weighed, then dried at 56 C. After 72 hours the lungs were weighed again. Heart weight (HW) and Lung weight (LW) was normalized to tibia length (TL) to assess changes in hypertrophic growth and lung edema, respectively. For histology, hearts were perfusion fixed with 10% neutral buffered formalin. Longitudinal sections of hearts were stained with Masson's Trichrome for assessment of fibrosis by the University of Washington Histology and Imaging Core.

[2] = tested on: heart mRNA levels (Nppa, Ctgf, mtDNA encoded genes, PPARα/RXRα target genes); assay: RT-PCR of heart transcripts and mitochondrial RNA junctions; format: in vivo, mouse; conditions: ISO treated hearts, NR in the presence of GW6471
Experimental: RNA Extraction and Quantitative Real-Time Polymerase Chain Reaction (RT-PCR). Total RNA was isolated from frozen heart tissue using the RNeasy fibrous Kit (Qiagen). Total RNA was reverse-transcribed into first-strand cDNA using Iscript (Bio-rad) according to manufacturer's guidelines. Real Time PCR was performed using SYBR green (Bio-Rad). Results of mRNA levels were normalized to 18S rRNA levels and reported as fold-change over control.

cardiac mitochondria = assay: Isolated cardiac mitochondria respiration (oxygen electrode); format: in vivo, mouse; conditions: ISO treated mice, GW6471 in addition to NR
Experimental: Mitochondrial Isolation from cardiac tissue. Hearts were excised from mice, the aortas and atria were removed. Heart tissues were rinsed briefly in ice-cold mitochondria isolation medium (MIM) (70 mM sucrose, 220 mM mannitol, 5 mM MOPS, 1 mM EDTA, 0.025% fatty acid-free BSA, pH 7.4 with 5M KOH) to remove residual blood. Tissues were minced on ice and resuspended in fresh MIM, followed by trypsin digestion (10 ug/ml) and incubated on ice for 10 min. Trypsin digestion was stopped by the addition of trypsin inhibitor (0.5 mg/ml) and additional BSA (1 mg/ml) to MIM. The tissue pellets were resuspended in fresh MIM containing 1 mg/ml BSA, and transferred to a Teflon-glass tube and homogenized on ice with a Teflon pestle. The homogenates were centrifuged for 10 min at 800×g at 4° C. The supernatants were collected and centrifuged for 10 min at 8,000×g at 4° C. The supernatant was discarded and the mitochondrial pellets were resuspended in MIM to wash. The resuspension was centrifuged for 10 min at 8,000×g at 4° C., and the supernatant discarded. The mitochondrial pellet was resuspended to a concentrated volume for protein quantification by BCA Assay (Pierce).
Mitochondrial respirations. Isolated mitochondria respiration experiments were performed in an Clark type oxygen electrode Oxytherm System (Hansatech Instruments) at 30C. Briefly, freshly isolated mitochondria were added to respiration buffer (125 mM KCl, 20 mM HEPES, 3 mM MgCl2, 400 μM EGTA, 5 mM KH2PO4, 0.2% BSA (fatty acid free), pH 7.2) and placed in the respiration chamber to measure baseline respiration (State 1). The change in oxygen levels following the immediate addition of substrates (pyruvate/malate (5 mM/2 mM) or palmitoylcarnitine/malate (50 μM/2 mM) (State 2) followed by the sequential addition of 2.5 mM ADP (State 3), […] Oligomycin (State 4p) and 1 μM FCCP (FCCP Max). Antimycin A (2.5 μM) was added last to measure the residual oxygen consumption not accounted for by the electron transfer chain and it was subtracted from the previous measurements.

`CCC(=O)NC[C@H](Cc1ccc(OCCc2nc(-c3ccccc3)oc2C)cc1)N/C(C)=C\C(=O)c1ccc(C(F)(F)F)cc1` [GW6471] was tested, and the “NR-induced increase of RXRα binding occupancy at the Acadm PPRE” value (RXRα) was “blocked”, the “Protection by NR (FS %, cardiac hypertrophy)” value [1] was “blocked” and the “PPARα/RXRα target gene expression” value [2] was “failed to preserve”. For the same molecule, the “Restoration by NR of PLC supported State 3 respiration” value (cardiac mitochondria) was “clearly blocked”.
